Like-named read-outs stand apart in the source and are kept apart here.
Legend:
Test in all cases: biochemical
Assay type in all cases: binding
panel of 442 kinases [1] = target: T1, panel of 442 kinases (Homo sapiens, UniProt P45985); conditions: kinase MEK4; for remaining activity at 1 µM: read-out: % of control at 1 µM
T1 construct: purchased Ambit Biosciences (scanMAXX KINOMEscan)
T1 sequence (P45985 1-399): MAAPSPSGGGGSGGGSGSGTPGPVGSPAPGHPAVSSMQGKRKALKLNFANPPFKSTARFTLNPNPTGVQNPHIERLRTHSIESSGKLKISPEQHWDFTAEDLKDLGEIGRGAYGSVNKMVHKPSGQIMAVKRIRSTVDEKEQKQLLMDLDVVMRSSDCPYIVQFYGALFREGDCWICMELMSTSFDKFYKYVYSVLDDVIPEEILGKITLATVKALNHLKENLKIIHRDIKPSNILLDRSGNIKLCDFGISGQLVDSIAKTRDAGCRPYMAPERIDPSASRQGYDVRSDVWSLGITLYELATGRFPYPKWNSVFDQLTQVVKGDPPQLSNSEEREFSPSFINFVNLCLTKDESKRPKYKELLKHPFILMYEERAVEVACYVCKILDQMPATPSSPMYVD

panel of 442 kinases [2] = target: T2, panel of 442 kinases (Homo sapiens, UniProt P00519, Q252H); conditions: for remaining activity at 1 µM: read-out: % of control at 1 µM; for remaining activity at 10 µM: read-out: % of control at 10 µM
T2 construct: purchased Ambit Biosciences (scanMAXX KINOMEscan)

panel of 442 kinases [3] = target: T3, panel of 442 kinases (Homo sapiens, UniProt P00519, Y253F); conditions: ABL1(Y253F)-phosphorylated; for remaining activity at 1 µM: read-out: % of control at 1 µM
T3 construct: purchased Ambit Biosciences (scanMAXX KINOMEscan)

panel of 442 kinases [4] = target: T4, panel of 442 kinases (Homo sapiens, UniProt Q9P0L2); conditions: kinase MARK1; for remaining activity at 1 µM: read-out: % of control at 1 µM
T4 construct: purchased Ambit Biosciences (scanMAXX KINOMEscan)

panel of 442 kinases [5] = target: T5, panel of 442 kinases (Homo sapiens, UniProt Q9UQB9); conditions: AURKC; for remaining activity at 1 µM: read-out: % of control at 1 µM
T5 construct: purchased Ambit Biosciences (scanMAXX KINOMEscan)
T5 sequence (Q9UQB9 1-309): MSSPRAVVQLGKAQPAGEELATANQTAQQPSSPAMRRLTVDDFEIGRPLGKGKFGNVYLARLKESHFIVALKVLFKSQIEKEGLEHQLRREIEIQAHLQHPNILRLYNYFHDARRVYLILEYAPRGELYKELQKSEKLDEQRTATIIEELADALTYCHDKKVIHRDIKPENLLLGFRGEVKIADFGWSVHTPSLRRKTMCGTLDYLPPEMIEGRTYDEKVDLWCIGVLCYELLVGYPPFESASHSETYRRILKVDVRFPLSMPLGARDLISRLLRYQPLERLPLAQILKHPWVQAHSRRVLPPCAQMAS

panel of 442 kinases [6] = target: T6, panel of 442 kinases (Homo sapiens, UniProt P45984); conditions: kinase JNK2; for remaining activity at 1 µM: read-out: % of control at 1 µM
T6 construct: purchased Ambit Biosciences (scanMAXX KINOMEscan)

panel of 442 kinases [7] = target: T7, panel of 442 kinases (Homo sapiens, UniProt Q52WX2); conditions: kinase SBK1; for remaining activity at 1 µM: read-out: SBK1 (% of control at 1 µM)
T7 construct: purchased Ambit Biosciences (scanMAXX KINOMEscan)

panel of 442 kinases [8] = target: T8, panel of 442 kinases (Homo sapiens, UniProt Q96D53); conditions: ADCK4; for remaining activity at 1 µM: read-out: % of control at 1 µM
T8 construct: purchased Ambit Biosciences (scanMAXX KINOMEscan)
T8 sequence (Q96D53 1-544): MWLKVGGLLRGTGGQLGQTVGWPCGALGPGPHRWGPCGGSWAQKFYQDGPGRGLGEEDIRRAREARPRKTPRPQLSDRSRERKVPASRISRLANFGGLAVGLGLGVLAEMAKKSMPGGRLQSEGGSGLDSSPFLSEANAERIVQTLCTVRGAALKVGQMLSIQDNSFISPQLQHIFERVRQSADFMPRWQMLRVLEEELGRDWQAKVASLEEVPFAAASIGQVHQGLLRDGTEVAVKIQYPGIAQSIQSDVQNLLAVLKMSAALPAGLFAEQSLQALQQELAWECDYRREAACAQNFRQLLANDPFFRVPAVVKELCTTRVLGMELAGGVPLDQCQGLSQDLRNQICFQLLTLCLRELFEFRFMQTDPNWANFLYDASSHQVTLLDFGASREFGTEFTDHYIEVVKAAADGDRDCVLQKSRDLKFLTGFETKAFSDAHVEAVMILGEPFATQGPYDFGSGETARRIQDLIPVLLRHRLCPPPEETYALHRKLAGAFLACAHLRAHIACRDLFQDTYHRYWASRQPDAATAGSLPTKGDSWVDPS

panel of 442 kinases [9] = target: T9, panel of 442 kinases (Homo sapiens, UniProt P06239); conditions: kinase LCK; for remaining activity at 1 µM: read-out: % of control at 1 µM
T9 construct: purchased Ambit Biosciences (scanMAXX KINOMEscan)

panel of 442 kinases [10] = target: T10, panel of 442 kinases (Homo sapiens, UniProt P53778); conditions: kinase p38-gamma; for remaining activity at 1 µM: read-out: % of control at 1 µM
T10 construct: purchased Ambit Biosciences (scanMAXX KINOMEscan)
T10 sequence (P53778 1-367): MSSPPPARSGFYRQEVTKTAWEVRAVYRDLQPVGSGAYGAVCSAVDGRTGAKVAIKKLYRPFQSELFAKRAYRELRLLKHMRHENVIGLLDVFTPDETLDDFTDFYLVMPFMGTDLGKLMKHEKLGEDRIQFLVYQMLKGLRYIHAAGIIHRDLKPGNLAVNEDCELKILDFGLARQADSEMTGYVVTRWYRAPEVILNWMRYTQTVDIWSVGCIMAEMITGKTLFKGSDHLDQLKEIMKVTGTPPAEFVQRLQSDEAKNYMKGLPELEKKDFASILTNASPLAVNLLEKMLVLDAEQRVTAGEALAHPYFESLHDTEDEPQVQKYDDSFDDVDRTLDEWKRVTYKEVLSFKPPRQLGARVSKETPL

panel of 442 kinases [11] = target: T11, panel of 442 kinases (Homo sapiens, UniProt P04626); conditions: ERBB2; for remaining activity at 1 µM: read-out: % of control at 1 µM
T11 construct: purchased Ambit Biosciences (scanMAXX KINOMEscan)

[12] = 10 µM, read-out: % of control at 10 µM

T6 sequence (P45984 whole entry): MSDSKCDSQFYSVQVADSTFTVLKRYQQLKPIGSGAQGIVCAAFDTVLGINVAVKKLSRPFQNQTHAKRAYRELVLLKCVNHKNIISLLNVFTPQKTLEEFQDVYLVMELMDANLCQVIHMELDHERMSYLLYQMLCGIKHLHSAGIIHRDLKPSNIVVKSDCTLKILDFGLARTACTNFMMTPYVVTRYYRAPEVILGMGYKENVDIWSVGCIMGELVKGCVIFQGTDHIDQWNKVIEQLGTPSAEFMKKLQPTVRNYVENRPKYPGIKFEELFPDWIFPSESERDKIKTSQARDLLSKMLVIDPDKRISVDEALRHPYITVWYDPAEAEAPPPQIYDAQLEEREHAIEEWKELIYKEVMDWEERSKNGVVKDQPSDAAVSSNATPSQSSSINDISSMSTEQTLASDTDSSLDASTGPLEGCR
T7 sequence (Q52WX2 whole entry): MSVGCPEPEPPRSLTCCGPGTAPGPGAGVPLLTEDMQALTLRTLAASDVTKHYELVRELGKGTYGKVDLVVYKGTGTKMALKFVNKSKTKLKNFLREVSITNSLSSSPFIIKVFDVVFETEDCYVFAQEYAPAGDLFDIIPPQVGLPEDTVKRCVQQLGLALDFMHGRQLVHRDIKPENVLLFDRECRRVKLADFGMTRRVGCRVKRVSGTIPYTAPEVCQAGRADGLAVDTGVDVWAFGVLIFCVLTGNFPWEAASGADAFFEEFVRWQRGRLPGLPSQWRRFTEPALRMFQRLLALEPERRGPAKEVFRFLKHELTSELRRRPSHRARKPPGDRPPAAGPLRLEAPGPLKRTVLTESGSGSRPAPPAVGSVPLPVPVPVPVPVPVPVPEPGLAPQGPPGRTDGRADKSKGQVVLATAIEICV
T11 sequence (P04626 23-1255): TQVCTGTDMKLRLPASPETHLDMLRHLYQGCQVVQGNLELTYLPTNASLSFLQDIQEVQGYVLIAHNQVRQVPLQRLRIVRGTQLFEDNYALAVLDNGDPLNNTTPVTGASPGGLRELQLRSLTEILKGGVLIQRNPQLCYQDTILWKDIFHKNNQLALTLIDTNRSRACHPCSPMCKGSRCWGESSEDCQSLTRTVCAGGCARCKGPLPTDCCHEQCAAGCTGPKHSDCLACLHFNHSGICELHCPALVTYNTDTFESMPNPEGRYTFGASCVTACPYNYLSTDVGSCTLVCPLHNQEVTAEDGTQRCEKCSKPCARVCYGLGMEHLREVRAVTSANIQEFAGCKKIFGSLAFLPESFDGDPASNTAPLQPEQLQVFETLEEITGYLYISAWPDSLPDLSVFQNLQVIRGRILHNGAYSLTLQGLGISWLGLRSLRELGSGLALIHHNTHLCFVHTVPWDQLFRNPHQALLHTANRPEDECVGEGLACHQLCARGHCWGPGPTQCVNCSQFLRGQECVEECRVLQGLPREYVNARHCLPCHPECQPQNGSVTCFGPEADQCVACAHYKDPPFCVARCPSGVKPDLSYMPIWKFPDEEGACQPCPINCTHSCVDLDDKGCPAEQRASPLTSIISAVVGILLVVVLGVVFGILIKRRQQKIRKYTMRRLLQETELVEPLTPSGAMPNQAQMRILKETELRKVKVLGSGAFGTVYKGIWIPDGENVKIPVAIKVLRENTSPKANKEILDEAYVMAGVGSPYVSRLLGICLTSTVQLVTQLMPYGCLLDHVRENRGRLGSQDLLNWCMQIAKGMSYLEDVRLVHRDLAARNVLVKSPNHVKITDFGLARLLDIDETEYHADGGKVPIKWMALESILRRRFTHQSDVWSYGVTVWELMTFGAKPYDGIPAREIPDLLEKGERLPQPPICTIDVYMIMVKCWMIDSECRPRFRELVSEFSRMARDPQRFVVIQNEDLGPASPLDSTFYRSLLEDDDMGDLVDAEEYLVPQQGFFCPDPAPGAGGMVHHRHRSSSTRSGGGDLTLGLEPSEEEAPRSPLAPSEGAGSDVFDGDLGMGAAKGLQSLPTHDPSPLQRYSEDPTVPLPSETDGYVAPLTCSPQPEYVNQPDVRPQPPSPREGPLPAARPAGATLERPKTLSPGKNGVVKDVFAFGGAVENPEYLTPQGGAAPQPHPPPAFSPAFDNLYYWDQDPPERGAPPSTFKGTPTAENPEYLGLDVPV
T4 sequence (Q9P0L2 whole entry): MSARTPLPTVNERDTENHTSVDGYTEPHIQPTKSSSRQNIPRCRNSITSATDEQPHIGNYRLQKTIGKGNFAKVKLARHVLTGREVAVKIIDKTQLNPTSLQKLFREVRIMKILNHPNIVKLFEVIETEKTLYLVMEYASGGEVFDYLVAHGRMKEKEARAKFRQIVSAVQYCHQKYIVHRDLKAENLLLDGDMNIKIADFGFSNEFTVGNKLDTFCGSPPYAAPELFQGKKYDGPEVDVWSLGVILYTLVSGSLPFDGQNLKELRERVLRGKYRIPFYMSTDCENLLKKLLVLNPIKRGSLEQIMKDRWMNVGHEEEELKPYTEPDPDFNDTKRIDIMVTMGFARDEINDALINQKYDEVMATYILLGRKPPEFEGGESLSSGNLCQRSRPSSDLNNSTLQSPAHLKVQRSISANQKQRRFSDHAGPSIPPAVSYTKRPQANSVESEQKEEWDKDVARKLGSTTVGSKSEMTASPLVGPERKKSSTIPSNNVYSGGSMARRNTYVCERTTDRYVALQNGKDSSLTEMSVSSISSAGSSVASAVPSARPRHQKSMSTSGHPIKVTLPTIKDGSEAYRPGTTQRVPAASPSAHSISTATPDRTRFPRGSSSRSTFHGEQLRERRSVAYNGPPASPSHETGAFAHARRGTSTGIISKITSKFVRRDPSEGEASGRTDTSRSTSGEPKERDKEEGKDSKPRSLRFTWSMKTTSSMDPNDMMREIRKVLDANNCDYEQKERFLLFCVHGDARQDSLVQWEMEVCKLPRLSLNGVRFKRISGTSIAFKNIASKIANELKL
T9 sequence (P06239 whole entry): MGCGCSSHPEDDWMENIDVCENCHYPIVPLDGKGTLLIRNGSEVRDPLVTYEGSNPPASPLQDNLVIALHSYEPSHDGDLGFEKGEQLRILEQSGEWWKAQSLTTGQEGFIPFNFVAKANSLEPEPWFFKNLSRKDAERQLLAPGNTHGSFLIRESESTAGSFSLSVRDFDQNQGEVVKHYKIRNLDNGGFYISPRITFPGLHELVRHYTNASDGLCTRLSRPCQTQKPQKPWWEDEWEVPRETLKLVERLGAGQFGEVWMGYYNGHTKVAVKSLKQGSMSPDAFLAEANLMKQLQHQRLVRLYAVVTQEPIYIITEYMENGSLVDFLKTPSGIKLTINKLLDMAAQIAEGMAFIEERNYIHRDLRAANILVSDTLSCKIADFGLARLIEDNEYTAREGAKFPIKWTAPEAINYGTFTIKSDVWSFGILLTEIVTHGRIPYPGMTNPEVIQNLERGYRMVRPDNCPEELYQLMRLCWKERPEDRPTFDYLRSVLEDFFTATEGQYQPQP

Compound | remaining activity at 1 µM (panel of 442 kinases [1]) [%] | remaining activity at 1 µM (panel of 442 kinases [2]; ABL1(Q252H)-nonphosphorylated) [%] | remaining activity at 1 µM (panel of 442 kinases [2]; ABL1(Q252H)-phosphorylated) [%] | remaining activity at 1 µM (panel of 442 kinases [3]) [%] | remaining activity at 1 µM (panel of 442 kinases [4]) [%] | remaining activity at 1 µM (panel of 442 kinases [5]) [%] | remaining activity at 1 µM (panel of 442 kinases [6]) [%] | remaining activity at 1 µM (panel of 442 kinases [7]) [%] | remaining activity at 1 µM (panel of 442 kinases [8]) [%] | remaining activity at 1 µM (panel of 442 kinases [9]) [%] | remaining activity at 1 µM (panel of 442 kinases [10]) [%] | remaining activity at 1 µM (panel of 442 kinases [11]) [%] | further results
Nc1cc(C(F)(F)F)c(-c2cc(N3CCOCC3)nc(N3CCOCC3)n2)cn1 [Buparlisib] | 100 | 100 | 72 | 85 | 100 | 100 | 100 | 94 | 100 | 100 | 100 | 85 | remaining activity at 10 µM (panel of 442 kinases [1]; [12]): 100%; remaining activity at 10 µM (panel of 442 kinases [2]; ABL1(Q252H)-nonphosphorylated): 100%; remaining activity at 10 µM (panel of 442 kinases [2]; ABL1(Q252H)-phosphorylated): 100%; remaining activity at 10 µM (panel of 442 kinases [3]; [12]): 94%; remaining activity at 10 µM (panel of 442 kinases [4]; [12]): 100%; remaining activity at 10 µM (panel of 442 kinases [5]; [12]): 91%; remaining activity at 10 µM (panel of 442 kinases [6]; [12]): 100%; remaining activity at 10 µM (panel of 442 kinases [7]; 10 µM, read-out: SBK1 (% of control at 10 µM)): 100%; remaining activity at 10 µM (panel of 442 kinases [8]; [12]): 100%; remaining activity at 10 µM (panel of 442 kinases [9]; [12]): 100%; remaining activity at 10 µM (panel of 442 kinases [10]; [12]): 100%; remaining activity at 10 µM (panel of 442 kinases [11]; [12]): 100%
Cn1c(=O)n(-c2ccc(C(C)(C)C#N)cc2)c2c3cc(-c4cnc5ccccc5c4)ccc3ncc21 [Dactolisib, 2-methyl-2-[4-(3-methyl-2-oxo-8-quinolin-3-yl-2,3-dihydroimidazo[4,5-c]quinolin-1-yl)-phenyl] propionitrile] | 83 | 57 | 59 | 82 | 82 | 87 | 100 | 92 |  | 88 | 100 | 100 | 
COc1ncc(-c2ccc3nccc(-c4ccnnc4)c3c2)cc1NS(=O)(=O)c1ccc(F)cc1F [Omipalisib] | 48 | 100 | 100 | 100 | 100 | 100 | 100 | 100 | 75 | 100 | 69 | 100 | 
FC(F)c1nc2ccccc2n1-c1nc(N2CCOCC2)nc(N2CCOCC2)n1 [ZSTK474, 2-(difluoromethyl)-1-[4,6-di(4-morpholinyl)-1,3,5-triazin-2-yl]-1H-benzimidazole] | 63 | 100 | 100 | 96 | 98 | 96 | 100 | 100 | 74 | 100 | 100 | 100 | 
